From patent US8063075B2, “Pyrrolidine ether derivatives as NK3 receptor antagonists” (Hoffmann-La Roche Inc., priority 2008, dated 2011) come the findings set out here.

In this assay the target is T1, recombinant human NK3 receptor (Homo sapiens, UniProt P29371).
T1 construct: expressed in transfected cells; host or cells: HEK293 cells (transient expression), membranes
T1 sequence (P29371 1-465): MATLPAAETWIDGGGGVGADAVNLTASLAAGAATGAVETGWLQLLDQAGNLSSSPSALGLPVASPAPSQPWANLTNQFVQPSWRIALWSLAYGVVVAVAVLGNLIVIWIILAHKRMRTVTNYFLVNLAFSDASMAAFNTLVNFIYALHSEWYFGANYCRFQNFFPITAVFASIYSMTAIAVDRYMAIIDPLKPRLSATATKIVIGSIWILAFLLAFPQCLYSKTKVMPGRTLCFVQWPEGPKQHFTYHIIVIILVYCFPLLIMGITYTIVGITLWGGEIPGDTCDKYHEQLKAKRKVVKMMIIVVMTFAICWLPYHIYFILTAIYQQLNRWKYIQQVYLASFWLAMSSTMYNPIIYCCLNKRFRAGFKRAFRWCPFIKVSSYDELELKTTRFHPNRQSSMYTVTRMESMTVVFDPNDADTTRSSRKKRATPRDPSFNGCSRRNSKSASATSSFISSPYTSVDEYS
The assay is described as follows: [3H]SR142801 competition binding assay. Conditions: membranes from HEK293 cells transiently expressing hNK3; [3H]SR142801 at its KD; 75 min RT; read-out: Data [μM] (affinity constant Ki, hNK3 receptor binding). How it is done: [^3H]SR142801 Competition Binding Assay
hNK3 receptor binding experiment were performed using [^3H]SR142801 (Catalog No. TRK1035, specific activity: 74.0 Ci/mmol, Amersham, GE Healthcare UK limited, Buckinghamshire, UK) and membrane isolated from HEK293 cells transiently expressing recombinant human NK3 receptor. After thawing, the membrane homogenates were centrifuged at 48,000×g for 10 min at 4° C., the pellets were resuspended in the 50 mM Tris-HCl, 4 mM MnCl2, 1 μM phosphoramidon, 0.1% BSA binding buffer at pH 7.4 to a final assay concentration of 5 μg protein/well. […] At the end of the incubation, membranes were filtered onto unitfilter (96-well white microplate with bonded GF/C filter preincubated 1 h in 0.3% PEI+0.3% BSA, Packard BioScience, Meriden, Conn.) with a Filtermate 196 harvester (Packard BioScience) and washed 4 times with ice-cold 50 mM Tris-HCl, pH 7.4 buffer. Nonspecific binding was measured in the presence of 10 μM SB222200 for both radioligands. The radioactivity on the filter was counted (5 min) on a Packard Top-count microplate scintillation counter with quenching correction after addition of 45 μl of microscint 40 (Can berra Packard S. A., Zürich, Switzerland) and shaking for 1 h. Inhibition curves were fitted according to the Hill equation: y=100/(1+(x/IC50)^nH), where nH=slope factor using Excel-fit 4 software (Microsoft). IC50 values were derived from the inhibition curve and the affinity constant (Ki) values were calculated using the Cheng-Prussoff equation Ki=IC50/(1+[L]/KD) where [L] is the concentration of radioligand and KD is its dissociation constant at the receptor, derived from the saturation isotherm. All experiments were performed in duplicate and the mean±standard error (SEM) of the individual Ki values was calculated.
Regarding `CC(=O)N1CCC(C(=O)N2C[C@H]([C@H](C)Oc3ccc(C#N)cn3)[C@@H](c3ccc(Cl)c(Cl)c3)C2)CC1` (racemic) [Example 2, 6-{(SR)-1-[(3RS,4SR)-1-(1-Acetyl-piperidine-4-carbonyl)-4-(3,4-dichloro-phenyl)-pyrrolidin-3-yl]-ethoxy}-nicotinonitrile], the Ki (in general, the equilibrium dissociation constant of an inhibitor or competing ligand from its target) is 0.0076 µM.

For the molecule `C[C@H](Oc1ccc(C#N)cn1)[C@H]1CN(C(=O)C2CCN(C(=O)C3(C)CC3)CC2)C[C@@H]1c1ccc(Cl)c(Cl)c1` (racemic) [Example 17, 6-((SR)-1-{(3RS,4SR)-4-(3,4-Dichloro-phenyl)-1-[1-(1-methyl-cyclopropanecarbonyl)-piperidine-4-carbonyl]-pyrrolidin-3-yl}-ethoxy)-nicotinonitrile], the Ki was 0.0046 µM.

Consider `C[C@H](Oc1ccc(C#N)cn1)[C@H]1CN(C(=O)C2CCN(C(=O)OC(C)(C)C)CC2)C[C@@H]1c1ccc(Cl)c(Cl)c1` (racemic) [Example 13, 4-[(3RS,4SR)-3-[(SR)-1-(5-Cyano-pyridin-2-yloxy)-ethyl]-4-(3,4-dichloro-phenyl)-pyrrolidine-1-carbonyl]-piperidine-1-carboxylic acid tert-butyl ester], for which the Ki was found to be 0.0044 µM.

With `CC(C)CN1CCC(C(=O)N2C[C@H]([C@H](C)Oc3ccc(Cl)cn3)[C@@H](c3ccc(Cl)c(Cl)c3)C2)CC1` (racemic) [Example 11, [(3RS,4SR)-3-[(SR)-1-(5-Chloro-pyridin-2-yloxy)-ethyl]-4-(3,4-dichloro-phenyl)-pyrrolidin-1-yl]-(1-isobutyl-piperidin-4-yl)-methanone], the inhibition constant (Ki) turned out to be 0.0061 µM.

Turning to `C[C@H](Oc1ccc(C#N)cn1)[C@H]1CN(C(=O)C2CCN(C(=O)CC#N)CC2)C[C@@H]1c1ccc(Cl)c(Cl)c1` (racemic) [Example 23, 6-{(SR)-1-[(3RS,4SR)-1-[1-(2-Cyano-acetyl)-piperidine-4-carbonyl]-4-(3,4-dichloro-phenyl)-pyrrolidin-3-yl]-ethoxy}-nicotinonitrile], the Ki is 0.0075 µM.

Consider `C[C@H](Oc1ccc(Cl)cn1)[C@H]1CN(C(=O)C2CCN(C(=O)C3(C)CC3)CC2)C[C@@H]1c1ccc(Cl)c(F)c1` [Example 53, {(3S,4R)-3-(4-Chloro-3-fluoro-phenyl)-4-[(S)-1-(5-chloro-pyridin-2-yloxy)-ethyl]-pyrrolidin-1-yl}-[1-(1-methyl-cyclopropanecarbonyl)-piperidin-4-yl]-methanone], for which the inhibition constant (Ki) was determined as 0.0008 µM.

Turning to `C[C@H](Oc1ccc(Cl)cn1)[C@H]1CN(C(=O)C2CCN(C(=O)C3(C)CC3)CC2)C[C@@H]1c1ccc(Cl)cc1` [Example 52, {(3S,4R)-3-(4-Chloro-phenyl)-4-[(S)-1-(5-chloro-pyridin-2-yloxy)-ethyl]-pyrrolidin-1-yl}-[1-(1-methyl-cyclopropanecarbonyl)-piperidin-4-yl]-methanone], the Ki is 0.001 µM.

`COC(=O)N[C@H]1CC[C@H](C(=O)N2C[C@H]([C@H](C)Oc3ccc(Cl)cn3)[C@@H](c3ccc(Cl)c(Cl)c3)C2)CC1` (racemic) [Example 5, {4-[(3RS,4SR)-3-[(SR)-1-(5-Chloro-pyridin-2-yloxy)-ethyl]-4-(3,4-dichloro-phenyl)-pyrrolidine-1-carbonyl]-cyclohexyl}-carbamic acid methyl ester]: the Ki came to 0.0095 µM.

Consider `C[C@H](Oc1ccc(C#N)cn1)[C@H]1CN(C(=O)C2CCN(C(=O)C3CC3)CC2)C[C@@H]1c1ccc(Cl)c(Cl)c1` (racemic) [Example 14, 6-{(SR)-1-[(3RS,4SR)-1-(1-Cyclopropanecarbonyl-piperidine-4-carbonyl)-4-(3,4-dichloro-phenyl)-pyrrolidin-3-yl]-ethoxy}-nicotinonitrile], for which the inhibitory constant (Ki) amounted to 0.0049 µM.

Regarding `C[C@H](Oc1ccc(C#N)cn1)[C@H]1CN(C(=O)[C@H]2CC[C@H](NC(=O)OC(C)(C)C)CC2)C[C@@H]1c1ccc(Cl)c(Cl)c1` (racemic) [Example 43, {4-[(3RS,4SR)-3-[(SR)-1-(5-Cyano-pyridin-2-yloxy)-ethyl]-4-(3,4-dichloro-phenyl)-pyrrolidine-1-carbonyl]-cyclohexyl}-carbamic acid tert-butyl ester], the Ki stood at 0.007 µM.

For `CC(=O)N1CCC(C(=O)N2C[C@H]([C@H](C)Oc3ccc(C(F)(F)F)cn3)[C@@H](c3ccc(Cl)c(Cl)c3)C2)CC1` (racemic) [Example 46, 1-(4-{(3SR,4RS)-3-(3,4-Dichloro-phenyl)-4-[(SR)-1-(5-trifluoromethyl-pyridin-2-yloxy)-ethyl]-pyrrolidine-1-carbonyl}-piperidin-1-yl)-ethanone], the Ki is 0.0018 µM.

As for `COC[C@H]1CC[C@H](C(=O)N2C[C@H]([C@H](C)Oc3ccc(Cl)cn3)[C@@H](c3ccc(Cl)c(Cl)c3)C2)CC1` (racemic) [Example 6, [(3RS,4SR)-3-[(SR)-1-(5-Chloro-pyridin-2-yloxy)-ethyl]-4-(3,4-dichloro-phenyl)-pyrrolidin-1-yl]-(4-methoxymethyl-cyclohexyl)-methanone], the inhibition constant Ki was 0.0058 µM.

Consider `C[C@H](Oc1ccc(C#N)cn1)[C@H]1CN(C(=O)C2CCN(C(=O)C3(N)CC3)CC2)C[C@@H]1c1ccc(Cl)c(Cl)c1` (racemic) [Example 19, 6-{(SR)-1-[(3RS,4SR)-1-[1-(1-Amino-cyclopropanecarbonyl)-piperidine-4-carbonyl]-4-(3,4-dichloro-phenyl)-pyrrolidin-3-yl]-ethoxy}-nicotinonitrile], for which the Ki was found to be 0.0077 µM.

As to `C#C[C@H]1CC[C@H](C(=O)N2C[C@H]([C@H](C)Oc3ccc(Cl)cn3)[C@@H](c3ccc(Cl)c(Cl)c3)C2)CC1` (racemic) [Example 10, [(3RS,4SR)-3-[(SR)-1-(5-Chloro-pyridin-2-yloxy)-ethyl]-4-(3,4-dichloro-phenyl)-pyrrolidin-1-yl]-(4-ethynyl-cyclohexyl)-methanone], the inhibition constant Ki was found to be 0.009 µM.

Regarding `C[C@H](Oc1ccc(C#N)cn1)[C@H]1CN(C(=O)[C@H]2CC[C@H](N(C)C(=O)OC(C)(C)C)CC2)C[C@@H]1c1ccc(Cl)c(Cl)c1` (racemic) [Example 42, {4-[(3RS,4SR)-3-[(SR)-1-(5-Cyano-pyridin-2-yloxy)-ethyl]-4-(3,4-dichloro-phenyl)-pyrrolidine-1-carbonyl]-cyclohexyl}-methyl-carbamic acid tert-butyl ester], the Ki was 0.0028 µM.

Regarding `CCC(=O)N1CCC(C(=O)N2C[C@H]([C@H](C)Oc3ccc(C#N)cn3)[C@@H](c3ccc(Cl)c(Cl)c3)C2)CC1` (racemic) [Example 22, 6-{(SR)-1-[(3RS,4SR)-4-(3,4-Dichloro-phenyl)-1-(1-propionyl-piperidine-4-carbonyl)-pyrrolidin-3-yl]-ethoxy}-nicotinonitrile], the inhibition constant Ki turned out to be 0.0036 µM.

For `C[C@H](Oc1ccc(C#N)cn1)[C@H]1CN(C(=O)C2CCN(C(=O)C3(C)CC3)CC2)C[C@@H]1c1ccc(Cl)c(Cl)c1` (racemic) [Example 47, 6-((SR)-1-{(3RS,4SR)-4-(3,4-Dichloro-phenyl)-1-[1-(1-methyl-cyclopropanecarbonyl)-piperidine-4-carbonyl]-pyrrolidin-3-yl}-ethoxy)-nicotinonitrile], the Ki was found to be 0.0019 µM.

Turning to `CC(=O)N(C)[C@H]1CC[C@H](C(=O)N2C[C@H]([C@H](C)Oc3ccc(C#N)cn3)[C@@H](c3ccc(Cl)c(Cl)c3)C2)CC1` (racemic) [Example 45, N-{4-[(3RS,4SR)-3-[(SR)-1-(5-Cyano-pyridin-2-yloxy)-ethyl]-4-(3,4-dichloro-phenyl)-pyrrolidine-1-carbonyl]-cyclohexyl}-N-methyl-acetamide], the Ki turned out to be 0.004 µM.

Turning to `C[C@H](Oc1ccc(Cl)cn1)[C@H]1CN(C(=O)C2CCC(=O)CC2)C[C@@H]1c1ccc(Cl)c(Cl)c1` (racemic) [Example 12, 4-[(3RS,4SR)-3-[(SR)-1-(5-Chloro-pyridin-2-yloxy)-ethyl]-4-(3,4-dichloro-phenyl)-pyrrolidine-1-carbonyl]-cyclohexanone], the inhibitory constant (Ki) was 0.0092 µM.

For `COCC(=O)N1CCC(C(=O)N2C[C@H]([C@H](C)Oc3ccc(C#N)cn3)[C@@H](c3ccc(Cl)c(Cl)c3)C2)CC1` (racemic) [Example 24, 6-((SR)-1-{(3RS,4SR)-4-(3,4-Dichloro-phenyl)-1-[1-(2-methoxy-acetyl)-piperidine-4-carbonyl]-pyrrolidin-3-yl}-ethoxy)-nicotinonitrile], the Ki was 0.0036 µM.
